Entries after “also recorded” stand apart in the source; their conditions may differ.
Legend:
[1] = system: IL-1β-induced IL-6 secretion by A549 lung cells; assay: IL-1β-induced IL-6 secretion by A549 lung cells (AlphaLISA); format: cell-based; conditions: 10 μM
Source text: (§1) A) Correlation of correlation (COC) plots where each point represents the Pearson correlation coefficient, r, between a distinct gene expression or GR-peptide interaction assay with assays indicated on the x and y axes. B) The effects of all tested compounds on IL-1β-induced secretion of IL-6 (y axes) and GC-regulated phenotypes indicated on the x axes. C) The effects of all tested compounds on IL-1β-induced secretion of IL-6 (y axis) and bone mineralization (x axis). D) IL-1β-induced IL-6 production by A549 cells treated with 10 μM of the indicated compounds was compared by AlphaLISA. E-H) Myoblasts were assayed as described in FIG. 8. I) Representative myoblasts imaged during the mitochondrial potential assay. J) Plasma TNFα levels of C57BL/6 male mice treated pretreated with the indicated ligands. K) Changes in lean mass of mice in panel J were determined by whole-body NMR after an additional 18 h LPS treatment. Data shown are mean+SEM.
In order to understand whether effects on skeletal muscle could be dissociated from anti-inflammatory effects of the ligands, we profiled the compounds for suppression of IL1β-induced IL-6 secretion by A549 lung cells. Examining the correlations between assays can be used to identify dissociated assays that selectively correlate with a given phenotype, predicting discovery of dissociated ligands. […] We call this a correlation of correlations (COC) plot. […] These include recruitment of NCOA2 and NCOA3 peptides, coactivators that we and others have shown to be required for GC-dependent suppression of inflammation in different cell types (FIG. 11, A). However, for the mitochondrial assay and IL-6, there are dissociated assays shown by points that are far out from the regression line in the COC plot (FIG. 7, A). For example, interaction of CHD9 with GR predicted mitochondrial activity but not Glut4 translocation (FIG. 11, B), while interaction with the CENPR peptide selectively predicted effects on Glut4 translocation (FIG. 11, C). […] Assays that correlated with effects of the ligands on GR nuclear translocation were also highly correlated with Glut4 translocation and suppression of IL-6 secretion (FIG. 11, F). Therefore, the COC curves provide a way to identify common signaling mechanisms between different GR target tissues and signaling pathways.

[2] = system: mitochondrial activity, pAKT, protein synthesis, and bone; assay: Compound profiling platform, overall profile (FIG. 15); format: cell-based; conditions: 10 uM
Method: N=4-6 from two different experiments. […] D) Mitochondrial activity was measured in myoblasts using high content imaging with mitotracker dye after 24 treatment. New amino acid incorporation was measured with LICOR in cell western for puromycin (SunSet assay). […] N=3, mean+SEM. […] N=4, mean+SEM, 2-way ANOVA.
(§2) To avoid such effects on myogenesis, we switched myoblasts to differentiation media, and then on day 4, added 10 μM cytarabine, a chemotherapy agent that kills dividing cells, and then adding GCs on day 6 or 7 and completing assays in day 8 (FIG. 8).
(§3) Physiologically, the effects of GCs on protein balance and Glut4 translocation vary in vivo depending upon the stressor. For example, GCs mediate atrophy in response to fasting but not exercise. […] To assess protein degradation, we measured chymotrypsin-like proteasomal activity (FIG. 2, A). The activating phosphorylation of AKT at Thr308 (pAKT) was measured using a LI-COR In-Cell Western assay (FIG. 2, B and C). The rate-limiting step in insulin-mediated glucose uptake is the translocation of the glucose transporter, Glut4, to the surface membrane, which we also measured by In-Cell Western without permeabilizing the myotubes (FIG. 2, D). Surface Sensing of Translation (SUnSET) (Schmidt et al., Nat Methods 6, 275-277, 2009) assay was used to measure protein synthesis by In-Cell Western, following treatment of myotubes with a low dose of puromycin, which incorporates into translating proteins, but at a low enough level to provide a readout for global protein synthesis (FIG. 2, E). Lastly, we developed a high-content imaging assay in myoblasts stained with a MitoTracker dye, so that individual mitochondrial networks could be visualized with adequate resolution to quantitate area, segmentation, branching, and fluorescence intensity which is a measure of mitochondrial membrane potential (ψm).
Additional studies were performed to assess activities of the various compounds identified from the previous profiling.

C2C12 myotubes = assay: Insulin-induced protein synthesis (SUnSET, In-Cell Western) in C2C12 myotubes; format: cell-based, mouse; conditions: for effect on insulin-induced protein synthesis: differentiated myotubes, nutrient-deprived, insulin challenge
Method: (§4) A) C2C12 myotubes were assayed for chymotrypsin-like proteasomal activity. […] C) Quantitation of the ICW in panel B. D) ICW for surface expression of Glut4 on L6 myotubes. E) ICW for insulin-induced incorporation of puromycin into C2C12 myotube surface proteins. F-G) High-content imaging and analysis of C2C12 myoblasts stained with a Mitotracker dye. H) Assay reproducibility from screening 22 compounds on two separate occasions. The Pearson correlation coefficient, r, and its associated p-value is indicated.
C2C12 myocytes were used in all assays, except in the Glut4 translocation assay where L6 rat myocytes were used. ICW, In-Cell Western. Also see Methods.
as §2, §3

C2C12 myoblasts = assay: Mitochondrial potential, high-content imaging with MitoTracker dye; format: cell-based, mouse
Method: as §4
A) Each dot represents the effects of a compound in the indicated assays at 10 uM. N=4-6 from two different experiments. […] C) SR11466 is efficacious at inhibiting IL-6 secretion from A549 cells. C-E). […] D) Mitochondrial activity was measured in myoblasts using high content imaging with mitotracker dye after 24 treatment. New amino acid incorporation was measured with LICOR in cell western for puromycin (SunSet assay). E) top, MMTV-luciferase reporter data. N=3, mean+SEM. Bottom, Mineralization of primary human OBs was assayed after two weeks of differentiation from MSC and two weeks of mineralization. N=4, mean+SEM, 2-way ANOVA.
as §3

LPS-induced TNFα = assay: LPS-induced plasma TNFα levels in mice; format: in vivo, C57BL/6 male mice; conditions: mice pretreated with ligand
Source text: as §1

[3] = Loss of lean mass after a larger dose of LPS (whole-body NMR); format: in vivo, C57BL/6 male mice; conditions: additional 18 h LPS treatment
Source text: as §1

[4] = Pharmacokinetics for in vivo dosing

pharmacokinetics for in vivo dosing [4] | Compound | inhibition of IL-1β-induced IL-6 secretion (anti-inflammatory) [1] | overall profile in compound profiling (anabolic effects, agonism) [2] | effect on insulin-induced protein synthesis (C2C12 myotubes) | effect on mitochondrial activity / potential (C2C12 myoblasts) | LPS-induced TNFα levels in the blood (LPS-induced TNFα) | loss of lean mass following a larger dose of LPS [3] | anabolic effect on protein synthesis in combination with Dex (C2C12 myotubes; C2C12 myotubes, with Dex)
 | CC#CC1(O)CCC2C3CCc4cc(C(=O)Nc5cccnc5C)ccc4C3C(OCc3ccc(Cl)cc3)CC21C (stereo not shown) [SR16025] | weakly anti-inflammatory | more antagonistic SGRMs; also recorded: anabolic effects |  |  |  |  | 
favorable pharmacokinetics | C=CCOC1CC2(C)C(CCC2(O)C#CC)C2CCc3cc(C(=O)Nc4cccnc4C)ccc3C12 (stereo not shown) [SR11466] | as efficiently as Dex; also recorded: fully inhibiting IL-6 secretion; also recorded: efficacious; also recorded: inhibited IL-6 secretion as efficiently as dexamethasone | anti-inflammatory but muscle sparing; also recorded: anabolic effects | slightly anabolic | enhanced | strongly suppressed | significantly better than Dex | 
 | CC#CC1(O)CCC2C3CCc4cc(C(=O)Nc5cnccc5C)ccc4C3C(O)CC21C (stereo not shown) [SR15421] | anti-inflammatory | anabolic effects |  |  |  |  | 
favorable pharmacokinetics | CC#CC1(O)CCC2C3CCc4cc(C(=O)Nc5cccnc5C)ccc4C3C(OCc3ccccc3Cl)CC21C (stereo not shown) [SR16024] | partially inhibited; also recorded: weakly anti-inflammatory | more antagonistic SGRMs; also recorded: anabolic effects | doubling; also recorded: robustly stimulated protein synthesis | enhanced; also recorded: doubling; also recorded: anabolic profile in mitochondria | not inhibitory | protective | right-shift in the dose curve; also recorded: Dex inhibits

Reference: patent publication US20230263808A1 (UNIVERSITY OF FLORIDA RESEARCH FOUNDATION, INCORPORATED, priority 2020, published 2023)
